Key:
TASK-1 = target: T1, TASK-1 (Homo sapiens, UniProt O14649); assay: whole-cell patch-clamp of TASK-1 currents in a 293T cell line; assay type: cell-based; settings: n = 10
T1 construct: expressed in transfected cells
Text: (§1) For recordings of K^+ channel currents, we prepared stable cell lines for TREK-1, TWIK-related acid-sensitive K^+ channel (TASK-1), strongly inwardly rectifying K^+ channel (Kir2.1), and human ether-a-go-go-related gene (HERG-1) channels and transiently expressed other channels in 293T cells using a calcium-phosphate transfection method. For the establishment of the stable lines, we used lentiviral vectors, and the preparation methods for the lentiviral vectors were described in our previous report. TR-1 cells, which stably expressed TREK-1 channel and were grown on a small cover glass (3 × 18 mm), were placed in a recording chamber with an internal volume of 200 μl. Whole-cell currents were recorded in Tyrode solution using an Axopatch 200B amplifier (Axon Instruments, Foster City, CA) at 25°C. Tyrode solution contained (in mM): NaCl 140, KCl 5.4, NaH2PO4 0.33, CaCl2 2, MgCl2 1, HEPES 5, and glucose 5.5 (pH 7.4 adjusted with NaOH). […] Perfusion (100 μl/min) was continued to maintain the water level throughout recordings. pH and osmotic pressure of solutions were measured with a pH meter (Horiba, Kyoto, Japan) and a freezing point osmometer (Knauer, Berlin, Germany), respectively. […]

Kir2.1 = target: T2, Kir2.1 (Homo sapiens, UniProt P63252); assay: whole-cell patch-clamp of Kir2.1 currents in 293T cells; assay type: cell-based; settings: n = 5, read-out: IC50 Kir 2.1
T2 construct: expressed in transfected cells
T2 sequence (P63252 1-427): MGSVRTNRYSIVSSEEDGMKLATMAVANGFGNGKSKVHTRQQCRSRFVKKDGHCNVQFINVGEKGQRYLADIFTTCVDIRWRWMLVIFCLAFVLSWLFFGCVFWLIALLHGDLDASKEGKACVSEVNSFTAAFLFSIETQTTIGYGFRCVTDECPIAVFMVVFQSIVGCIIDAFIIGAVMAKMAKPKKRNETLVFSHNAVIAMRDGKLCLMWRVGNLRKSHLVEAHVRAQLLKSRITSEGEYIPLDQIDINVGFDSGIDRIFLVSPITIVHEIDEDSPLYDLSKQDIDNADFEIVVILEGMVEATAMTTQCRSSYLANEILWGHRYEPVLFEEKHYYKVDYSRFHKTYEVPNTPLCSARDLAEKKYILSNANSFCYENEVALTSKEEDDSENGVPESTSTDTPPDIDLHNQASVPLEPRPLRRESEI
Text: as §1

HERG-1 = target: T3, HERG-1 (Homo sapiens, UniProt Q12809); assay: whole-cell patch-clamp of HERG-1 tail currents in 293T cells; assay type: cell-based; settings: outward tail current, n = 5
T3 construct: expressed in transfected cells
T3 sequence (Q12809 whole entry): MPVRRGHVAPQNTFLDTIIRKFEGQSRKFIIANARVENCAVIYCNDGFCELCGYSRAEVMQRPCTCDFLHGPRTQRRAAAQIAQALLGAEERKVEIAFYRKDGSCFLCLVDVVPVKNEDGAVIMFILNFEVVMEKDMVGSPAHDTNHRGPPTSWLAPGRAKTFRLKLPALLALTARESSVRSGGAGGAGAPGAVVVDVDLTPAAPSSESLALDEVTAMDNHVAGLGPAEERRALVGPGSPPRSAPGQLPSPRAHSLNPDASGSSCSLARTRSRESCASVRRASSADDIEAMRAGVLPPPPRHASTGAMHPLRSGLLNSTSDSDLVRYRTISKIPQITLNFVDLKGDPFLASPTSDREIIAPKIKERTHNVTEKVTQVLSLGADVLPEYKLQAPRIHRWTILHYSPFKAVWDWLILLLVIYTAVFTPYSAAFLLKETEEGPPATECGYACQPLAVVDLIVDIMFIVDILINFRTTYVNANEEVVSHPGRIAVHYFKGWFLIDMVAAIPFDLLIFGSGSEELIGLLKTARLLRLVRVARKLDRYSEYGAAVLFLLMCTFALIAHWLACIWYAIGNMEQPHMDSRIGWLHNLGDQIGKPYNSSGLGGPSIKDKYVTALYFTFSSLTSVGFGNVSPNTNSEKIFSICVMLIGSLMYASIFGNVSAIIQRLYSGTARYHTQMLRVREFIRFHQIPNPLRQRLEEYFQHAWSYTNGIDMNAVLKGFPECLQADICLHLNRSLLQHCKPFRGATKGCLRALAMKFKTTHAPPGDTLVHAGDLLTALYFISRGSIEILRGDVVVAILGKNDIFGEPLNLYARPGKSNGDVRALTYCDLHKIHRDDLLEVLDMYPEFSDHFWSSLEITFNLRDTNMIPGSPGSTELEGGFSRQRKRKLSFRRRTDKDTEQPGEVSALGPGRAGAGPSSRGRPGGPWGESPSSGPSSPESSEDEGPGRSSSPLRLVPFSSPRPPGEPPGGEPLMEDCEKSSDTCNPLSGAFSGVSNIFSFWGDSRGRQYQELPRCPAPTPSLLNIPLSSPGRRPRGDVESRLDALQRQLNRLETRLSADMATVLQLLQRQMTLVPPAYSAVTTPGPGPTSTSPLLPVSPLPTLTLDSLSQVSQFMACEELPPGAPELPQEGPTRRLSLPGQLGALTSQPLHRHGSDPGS
Text: as §1

[1] = test system: mice anxiety-like behavior; assay: elevated plus maze; assay type: in vivo
Text: (§2) Male ICR mice (n = 317 in total) aged 5 weeks and weighing 32 ± 2 g were purchased from Shimizu Laboratory Supplies (Kyoto, Japan). For the social defeat stress test, we used 28 C57BL/6J mice (5 weeks old, Shimizu Laboratory Supplies) and 30 ICR mice (7–8 weeks old, Charles River Labs Japan, Yokohama, Kanagawa, Japan). Mice were maintained for at least 1 week prior to experiments. Animals were kept in groups in plastic cages. They had free access to food and water, and were kept in a 12-h light/dark cycle (08:00–20:00). Experiments were carried out between 10:00 and 18:00 in a quiet and air-conditioned experimental room, in which mice were habituated for at least 30 min before each experiment. Animal experiments were performed in accordance with the guidelines of the Physiological Society of Japan and were approved by the Committees on Animal Experiments at Kansai Medical University and the Kurashiki University of Science and the Arts. Ostruthin was initially dissolved in DMSO at higher concentration (100 mM) and then diluted in phosphate-buffered saline (PBS). The diluted solution was mixed vigorously for more than 10 min before the experiments, and an equal volume of DMSO was added to PBS as a control. PBS and ostruthin were administered intraperitoneally 30 min before mice behavioral tests (0.01 ml/g body weight). Each animal was used only once, except for the wheel running test, which was carried out immediately after elevated plus maze.
The elevated plus maze apparatus consisted of four arms set in a cross pattern from a neutral central square (6 × 6 cm). Two opposite arms were delimited by vertical walls (closed arms, 30 × 15 × 6 cm), whereas the other two arms had unprotected edges (open arms, 30 × 6 cm). The maze was elevated 40 cm above the floor. At the beginning of each 5 min test session, a mouse was placed in the central neutral area, facing one of the open arms. The total number of the entries to open arms and time spent in the open arms were measured. After removal of the animal, the apparatus was cleaned and wiped.

[2] = test system: depression-like behavior of mice; assay: forced swim test; assay type: in vivo; settings: 0, 2, 5, 20 mg/kg i.p. 30 min before test, dose-dependent, last 4 min of 6 min, n = 8
Text: as §2, with “PBS and ostruthin were administered intraperitoneally 30 min before mice behavioral tests (0.01 ml/g body weight). Each animal was used only once, except for the wheel running test, which was carried out immediately after elevated plus maze.” left out
The forced swim test was performed in accordance with a method reported previously. […] Mouse was allowed to swim for 6 min and the activity was measured. […]

T1 sequence (O14649 whole entry, species assumed): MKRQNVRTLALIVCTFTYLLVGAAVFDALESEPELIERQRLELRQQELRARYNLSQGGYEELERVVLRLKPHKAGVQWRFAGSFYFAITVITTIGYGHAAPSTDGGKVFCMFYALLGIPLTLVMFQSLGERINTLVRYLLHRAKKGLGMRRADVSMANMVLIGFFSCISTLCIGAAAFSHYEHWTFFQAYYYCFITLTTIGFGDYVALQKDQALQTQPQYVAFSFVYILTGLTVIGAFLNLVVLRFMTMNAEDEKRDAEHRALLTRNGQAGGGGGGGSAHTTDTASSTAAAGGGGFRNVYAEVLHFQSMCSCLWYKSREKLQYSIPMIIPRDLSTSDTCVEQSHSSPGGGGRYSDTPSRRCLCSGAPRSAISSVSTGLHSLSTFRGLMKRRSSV

IC50 (TASK-1): 41 µM | IC50 (Kir2.1): 198 µM
Structure (SMILES): CC(C)=CCC/C(C)=C/Cc1cc2ccc(=O)oc2cc1O [ostruthin]
IC50 (HERG-1): 216 µM | number of entries to the open arm ([1]; 20 mg/kg i.p., vs 5 mg/kg): decreased | time spent on the open arm ([1]; 20 mg/kg i.p., vs 5 mg/kg): decreased | number of entries to the open arm ([1]; 2 and 5 mg/kg i.p. 30 min before test, vs 0 mg/kg): increased | number of entries to the open arm ([1]; amlodipine experiment: single compound vs PBS, ostruthin 5 mg/kg or amlodipine 10 mg/kg, n = 6): increased | number of entries to the open arm ([1]; ostruthin 5 mg/kg co-administered with amlodipine 10 mg/kg, vs amlodipine, n = 6): did not increase | time spent in the open arm ([1]; ostruthin 5 mg/kg in the absence of amlodipine, vs PBS, n = 6): increased | increase of time spent in the open arm ([1]; ostruthin 5 mg/kg in the presence of amlodipine 10 mg/kg, n = 6): did not | time spent immobile [2]: decreased

— paper PMC6093650, “Antidepressive and anxiolytic effects of ostruthin, a TREK-1 channel activator” (PLoS ONE, 2018)
